Results on 12 compounds are retold here after US12552783B2, “Modulators of proteolysis and associated methods of use” (Arvinas Operations, Inc., priority 2018, dated 2026).

Structures are written as SMILES. Some results are limits rather than exact numbers.

The assay has as its target KRas (Homo sapiens, UniProt P01116, G12C). Description: KRas degradation in SW1573 cells by Western blot, normalized to GAPDH (data of Table 14). As to conditions: SW1573 cells. The format is cell-based. The method, boiled down:
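SW1573 cells, homozygous for the KRas G12C mutation and maintained in DMEM with 10% FBS and 1% penicillin-streptomycin, were seeded in 12-well plates, allowed to attach overnight at 37° C. under 5% CO2, then serum-starved for 24 hours before compound exposure. KRas levels were measured by Western blot, normalized to GAPDH, and compared with DMSO controls to give percent degradation, DC50 and Dmax.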
(In western blotting, separated proteins are transferred to a membrane and probed.)

For `C=CC(=O)N1CCN(c2nc(O[C@H](C)CN3CCC(OCCOCCOCCOCCOc4ccc5c(c4)C(=O)N(C4CCC(=O)NC4=O)C5=O)CC3)nc3c(F)c(-c4cc(O)cc5ccccc45)c(Cl)cc23)CC1` (some centres unmarked) [compound 429], the “Percent Degradation at Indicated Concentration (μM)” value (from here on “Percent Degradation”) is given as “C (Percent Degradation: C ≤ 35)” (0.1 μM), “C (Percent Degradation: C ≤ 35)” (0.3 μM) and “C (Percent Degradation: C ≤ 35)” (1 μM).
What is called Dmax is the largest share of the target that was removed. Read a high Dmax as a fuller loss of target. The compound `C=CC(=O)N1CCN(c2nc(OC[C@@H]3C[C@@H](OCCOCCOCCOCCOc4ccc5c(c4)C(=O)N(C4CCC(=O)NC4=O)C5=O)CN3C)nc3c2CCN(c2cccc4ccccc24)C3)C[C@@H]1CC#N` (stereo partly drawn) [compound 481, 2-((2S)-1-acryloyl-4-(2-(((2S,4R)-4-(2-(2-(2-(2-((2-(2,6-dioxopiperidin-3-yl)-1,3-dioxoisoindolin-5-yl)oxy)ethoxy)ethoxy)ethoxy)ethoxy)-1-methylpyrrolidin-2-yl)methoxy)-7-(naphthalen-1-yl)-5,6,7,8-tetrahydropyrido[3,4-d]dipyrimidin-4-yl)piperazin-2-yl)acetonitrile] came in with a Dmax of 35 to 70%. Moreover, the “Percent Degradation” value (0.1 μM) is given as “C (Percent Degradation: C ≤ 35)”. For the same compound, the “Percent Degradation” value (0.3 μM) is recorded as “C (Percent Degradation: C ≤ 35)”. In addition, the “Percent Degradation” value (1 μM) was “B (35 < B < 70)”.
Take `C=CC(=O)N1CCN(c2nc(O[C@H](C)CN3CCC(OCCOCCOCC(=O)N[C@H](C(=O)N4C[C@@H](O)C[C@H]4C(=O)N[C@@H](C)c4ccc(-c5scnc5C)cc4)C(C)(C)C)CC3)nc3c(F)c(-c4cc(O)cc5ccccc45)c(Cl)cc23)CC1` [compound 405, (2S,4S)-1-((2S)-2-(2-(2-(2-((1-((2R)-2-((4-(4-acryloylpiperazin-1-yl)-6-chloro-8-fluoro-7-(3-hydroxynaphthalen-1-yl)quinazolin-2-yl)oxy)propyl)piperidin-4-yl)oxy)ethoxy)ethoxy)acetamido)-3,3-dimethylbutanoyl)-4-hydroxy-N-((S)-1-(4-(4-methylthiazol-5-yl)phenyl)ethyl)pyrrolidine-2-carboxamide]: the “Percent Degradation” value is “C (Percent Degradation: C ≤ 35)” (0.1 μM), “C (Percent Degradation: C ≤ 35)” (0.3 μM) and “C (Percent Degradation: C ≤ 35)” (1 μM).
As to `C=CC(=O)N1CCN(c2nc(O[C@H](C)CN3CCC(OCCOc4cc(-c5scnc5C)ccc4CNC(=O)[C@@H]4C[C@@H](O)CN4C(=O)[C@H](c4cc(C)no4)C(C)C)CC3)nc3c2CCN(c2cc(O)cc4ccccc24)C3)CC1` [compound 437, (2S,4R)-N-(2-(2-((14(R)-2-((4-(4-acryloylpiperazin-1-yl)-7-(3-hydroxynaphthalen-1-yl)-5,6,7,8-tetrahydropyrido[3,4-d1pyrimidin-2-yl)oxy)propyl)piperidin-4-yl)oxy)ethoxy)-4-(4-methylthiazo1-5-yl)benzyl)-4-hydroxy-1-((S)-3-methyl-2-(3-methylisoxazol-5-yl)butanoyl)pyrrolidine-2-carboxamide], the “Percent Degradation” value runs as follows: (0.1 μM) “C (Percent Degradation: C ≤ 35)”; (0.3 μM) “C (Percent Degradation: C ≤ 35)”; (1 μM) “C (Percent Degradation: C ≤ 35)”.
Turning to `Cc1ncsc1-c1ccc([C@H](C)NC(=O)[C@@H]2C[C@@H](O)CN2C(=O)[C@@H](NC(=O)COCCOCCOC2CCN(C[C@@H](C)Oc3nc(N4CCN(C(=O)C(O)O)CC4)c4cc(Cl)c(-c5cc(O)cc6ccccc56)c(F)c4n3)CC2)C(C)(C)C)cc1` [compound 245, (2S,4R)-1-((2S)-2-(2-(2-(2-((1-((2R)-2-((6-chloro-4-(4-(2,2-dihydroxyacetyl)piperazin-1-yl)-8-fluoro-7-(3-hydroxynaphthalen-1-yl)quinazolin-2-yl)oxy)propyl)piperidin-4-yl)oxy)ethoxy)ethoxy)acetamido)-3,3-dimethylbutanoyl)-4-hydroxy-N-((S)-1-(4-(4-methylthiazol-5-yl)phenyl)ethyl)pyrrolidine-2-carboxamide], the “Percent Degradation” value (0.1 μM) is “C (Percent Degradation: C ≤ 35)”, the “Percent Degradation” value (0.3 μM) is on record as “C (Percent Degradation: C ≤ 35)” and the “Percent Degradation” value (1 μM) was “C (Percent Degradation: C ≤ 35)”.
For `C[C@H](CN1CCC(OCCOCCOCCOCCOCCOc2ccc3c(c2)C(=O)N(C2CCC(=O)NC2=O)C3=O)CC1)Oc1nc(N2CCN(C(=O)C(O)O)CC2)c2cc(Cl)c(-c3cc(O)cc4ccccc34)c(F)c2n1` (stereo partly drawn) [compound 515, 5-((14-((1-((2R)-2-((6-chloro-4-(4-(2,2-dihydroxyacetyl)piperazin-1-yl)-8-fluoro-7-(3-hydroxynaphthalen-1-yl)quinazolin-2-yl)oxy)propyl)piperidin-4-yl)oxy)-3,6,9,12-tetraoxatetradecyl)oxy)-2-(2,6-dioxopiperidin-3-yl)isoindoline-1,3-dione], the “Percent Degradation” value (0.3 μM) was “C (Percent Degradation: C ≤ 35)”, the “Percent Degradation” value (1 μM) is listed as “C (Percent Degradation: C ≤ 35)” and the “Percent Degradation” value (3 μM) is “C (Percent Degradation: C ≤ 35)”.
Consider `C=CC(=O)N1CCN(c2nc(O[C@H](C)CN3CCC(OCCOCCOCCOCCOCC(=O)N[C@H](C(=O)N4C[C@H](O)C[C@H]4C(=O)N[C@@H](C)c4ccc(-c5scnc5C)cc4)C(C)(C)C)CC3)nc3c2CCN(c2cc(O)cc4ccccc24)C3)CC1` [compound 409], for which the “Percent Degradation” value by setting is: (0.1 μM) “C (Percent Degradation: C ≤ 35)”; (0.3 μM) “C (Percent Degradation: C ≤ 35)”; (1 μM) “C (Percent Degradation: C ≤ 35)”.
Turning to `C=CC(=O)N1CCN(c2nc(O[C@H](C)CN3CCC(OCCOCCOCCOCCOCCNc4cccc5c4C(=O)N(C4CCC(=O)NC4=O)C5=O)CC3)nc3c2CCN(c2cc(O)cc4ccccc24)C3)CC1` (some centres unmarked) [compound 415], the “Percent Degradation” value is recorded as “C (Percent Degradation: C ≤ 35)” (0.1 μM), “C (Percent Degradation: C ≤ 35)” (0.3 μM) and “C (Percent Degradation: C ≤ 35)” (1 μM).
With `C=CC(=O)N1CCN(c2nc(OC[C@@H]3C[C@@H](OCCOCCOCCOCCOCCNc4cccc5c4C(=O)N(C4CCC(=O)NC4=O)C5=O)CN3C)nc3c2CCN(c2cccc4ccccc24)C3)C[C@@H]1CC#N` (stereo partly drawn) [compound 519, 2-((2S)-1-acryloyl-4-(2-(((2S,4R)-4-((14-((2-(2,6-dioxopiperidin-3-yl)-1,3-dioxoisoindolin-4-yl)amino)-3,6,9,12-tetraoxatetradecyl)oxy)-1-methylpyrrolidin-2-yl)methoxy)-7-(naphthalen-1-yl)-5,6,7,8-tetrahydropyrido[3,4-d]pyrimidin-4-yl)piperazin-2-yl)acetonitrile], the Dmax is at least 70%. Besides, where the note is “0.1 μM”, the “Percent Degradation” value is recorded as “B (35 < B < 70)”. In addition, the “Percent Degradation” value (0.3 μM) is listed as “A (A > 70)”. Further, the “Percent Degradation” value (1 μM) is recorded as “C (Percent Degradation: C ≤ 35)”.
As to `C=CC(=O)N1CCN(c2nc(O[C@H](C)CN3CCC(OCCOCCOc4ccc5c(c4)C(=O)N(C4CCC(=O)NC4=O)C5=O)CC3)nc3c(F)c(-c4cc(O)cc5ccccc45)c(Cl)cc23)CC1` (stereo partly drawn) [compound 427, 5-(2-(2-((1-((2R)-2-((4-(4-acryloylpiperazin-1-yl)-6-chloro-8-fluoro-7-(3-hydroxynaphthalen-1-yl)quinazolin-2-yl)oxy)propyl)piperidin-4-yl)oxy)ethoxy)ethoxy)-2-(2,6-dioxopiperidin-3-yl)isoindoline-1,3-dione], the “Percent Degradation” value is listed as “C (Percent Degradation: C ≤ 35)” (0.1 μM), “C (Percent Degradation: C ≤ 35)” (0.3 μM) and “C (Percent Degradation: C ≤ 35)” (1 μM).
With `C=CC(=O)N1CCN(c2nc(O[C@H](C)CN3CCC(OCCOCCOc4ccc5c(c4)C(=O)N(C4CCC(=O)NC4=O)C5=O)CC3)nc3c2CCN(c2cc(O)cc4ccccc24)C3)CC1` (stereo partly drawn) [compound 417, 5-(2-(2-((1-((R)-2-((4-(4-acryloylpiperazin-1-yl)-7-(3-hydroxynaphthalen-1-yl)-5,6,7,8-tetrahydropyrido[3,4-d]pyrimidin-2-yl)oxy)propyl)piperidin-4-yl)oxy)ethoxy)ethoxy)-2-(2,6 dioxopiperidin-3-yl)isoindoline-1,3-dione], the “Percent Degradation” value (0.1 μM) is given as “C (Percent Degradation: C ≤ 35)”, the “Percent Degradation” value (0.3 μM) is reported as “C (Percent Degradation: C ≤ 35)” and the “Percent Degradation” value (1 μM) is “C (Percent Degradation: C ≤ 35)”.
As for `CN1C[C@H](OCCOCCNc2cccc3c2C(=O)N(C2CCC(=O)NC2=O)C3=O)C[C@H]1COc1nc2c(c(N3CCN(C(N)=O)[C@@H](CC#N)C3)n1)CCN(c1cccc3ccccc13)C2` (stereo partly drawn) [compound 543, (2S)-2-(cyanomethyl)-4-(2-(((2S,4R)-4-(2-(2-((2-(2,6-dioxopiperidin-3-yl)-1,3-dioxoisoindolin-4-yl)amino)ethoxy)ethoxy)-1-methylpyrrolidin-2-yl)methoxy)-7-(naphthalen-1-yl)-5,6,7,8-tetrahydropyrido[3,4-d]pyrimidin-4-yl)piperazine-1-carboxamide], the “Percent Degradation” value was “C (Percent Degradation: C ≤ 35)” (0.3 μM), “C (Percent Degradation: C ≤ 35)” (1 μM) and “C (Percent Degradation: C ≤ 35)” (3 μM).
